Each compound was assayed against T1, Nav1.7 (or SCN9A) channel; HEK cells stably transfected with hSCN9A (Homo sapiens, UniProt Q15858) (assay: Nav1.7 block, PatchXpress 7000 automated whole-cell voltage clamp, estimated IC50 (EIC50)). Details: PatchXpress platform; hSCN9A HEK cells held at V1/2 of inactivation; estimated IC50.
T1 construct: expressed in transfected cells
T1 sequence (Q15858 whole entry): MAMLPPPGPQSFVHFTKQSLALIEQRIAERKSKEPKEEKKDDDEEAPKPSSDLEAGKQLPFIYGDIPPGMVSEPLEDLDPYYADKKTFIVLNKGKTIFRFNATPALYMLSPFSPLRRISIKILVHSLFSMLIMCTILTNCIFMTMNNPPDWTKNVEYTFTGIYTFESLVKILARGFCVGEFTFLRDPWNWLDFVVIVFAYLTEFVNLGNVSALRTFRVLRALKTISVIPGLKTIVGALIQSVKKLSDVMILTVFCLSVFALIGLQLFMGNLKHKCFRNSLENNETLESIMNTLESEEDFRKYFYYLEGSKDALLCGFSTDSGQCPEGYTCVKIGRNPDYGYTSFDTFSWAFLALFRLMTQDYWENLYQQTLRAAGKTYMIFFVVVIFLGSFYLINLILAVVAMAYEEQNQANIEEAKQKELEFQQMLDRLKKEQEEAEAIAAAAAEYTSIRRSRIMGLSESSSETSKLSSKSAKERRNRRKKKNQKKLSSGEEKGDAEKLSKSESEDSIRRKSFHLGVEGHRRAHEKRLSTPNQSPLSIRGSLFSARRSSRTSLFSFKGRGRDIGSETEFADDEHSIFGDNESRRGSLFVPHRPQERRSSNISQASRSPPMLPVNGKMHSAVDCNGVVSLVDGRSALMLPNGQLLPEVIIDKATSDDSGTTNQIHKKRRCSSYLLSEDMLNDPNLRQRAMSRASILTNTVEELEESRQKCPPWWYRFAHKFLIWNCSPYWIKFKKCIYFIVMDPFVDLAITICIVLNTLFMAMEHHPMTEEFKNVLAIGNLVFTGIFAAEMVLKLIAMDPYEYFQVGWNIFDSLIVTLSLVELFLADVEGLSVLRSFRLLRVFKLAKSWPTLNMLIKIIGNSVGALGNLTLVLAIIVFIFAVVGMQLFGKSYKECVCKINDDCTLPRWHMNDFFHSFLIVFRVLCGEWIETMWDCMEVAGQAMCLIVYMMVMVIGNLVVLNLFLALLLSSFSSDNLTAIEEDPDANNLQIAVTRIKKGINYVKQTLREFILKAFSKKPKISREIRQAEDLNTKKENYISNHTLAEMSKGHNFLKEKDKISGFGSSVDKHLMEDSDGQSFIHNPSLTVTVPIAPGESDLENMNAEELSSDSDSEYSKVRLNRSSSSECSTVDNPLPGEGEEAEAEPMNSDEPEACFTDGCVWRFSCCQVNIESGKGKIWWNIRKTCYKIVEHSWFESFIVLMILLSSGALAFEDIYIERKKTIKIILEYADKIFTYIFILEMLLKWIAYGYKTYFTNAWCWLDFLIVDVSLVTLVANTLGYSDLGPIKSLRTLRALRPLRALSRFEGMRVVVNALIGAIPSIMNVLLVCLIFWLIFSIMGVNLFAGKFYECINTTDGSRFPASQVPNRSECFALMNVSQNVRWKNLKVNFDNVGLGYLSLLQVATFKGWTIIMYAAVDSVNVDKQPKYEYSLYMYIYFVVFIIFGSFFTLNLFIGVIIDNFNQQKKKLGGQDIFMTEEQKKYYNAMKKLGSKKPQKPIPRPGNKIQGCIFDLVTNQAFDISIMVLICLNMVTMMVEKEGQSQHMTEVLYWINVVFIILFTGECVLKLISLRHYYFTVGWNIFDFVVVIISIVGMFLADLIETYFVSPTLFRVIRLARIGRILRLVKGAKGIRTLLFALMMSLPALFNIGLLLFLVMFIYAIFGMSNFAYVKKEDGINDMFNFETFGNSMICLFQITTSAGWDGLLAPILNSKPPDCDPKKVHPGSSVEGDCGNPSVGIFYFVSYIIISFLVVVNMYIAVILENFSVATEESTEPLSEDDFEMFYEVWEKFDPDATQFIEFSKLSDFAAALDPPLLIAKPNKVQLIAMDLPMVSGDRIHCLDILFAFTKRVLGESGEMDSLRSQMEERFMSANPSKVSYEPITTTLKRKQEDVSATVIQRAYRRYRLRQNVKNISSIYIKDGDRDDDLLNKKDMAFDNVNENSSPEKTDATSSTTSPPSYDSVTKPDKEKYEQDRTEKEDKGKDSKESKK
Format: cell-based
`Cn1ccc(-c2c(F)cccc2Oc2ccc(S(=O)(=O)Nc3ncns3)cc2C#N)n1` [Example 85, 3-Cyano-4-[3-fluoro-2-(1-methyl-1H-pyrazol-3-yl)-phenoxy]-N-[1,2,4]thiadiazol-5-yl-benzene-sulfonamide] showed an IC50 of 1430 nM.
`N#Cc1cc(S(=O)(=O)Nc2nccs2)ccc1Oc1ccc(F)cc1-c1ccnn1CC(F)(F)F` [Example 175, 3-cyano-4-(4-fluoro-2-(1-(2,2,2-trifluoroethyl)-1H-pyrazol-5-yl)phenoxy)-N-(thiazol-2-yl)benzenesulfonamide] was tested, and the IC50 was 540 nM.
`N#Cc1cc(S(=O)(=O)Nc2ncns2)ccc1Oc1ccc(Cl)cc1Oc1ccccc1` [Example 79, 4-(4-chloro-2-phenoxyphenoxy)-3-cyano-N-1,2,4-thiadiazol-5-ylbenzenesulfonamide] was tested, and the IC50 was 450 nM.
In the case of `Cn1nccc1-c1c(F)cccc1Oc1ccc(S(=O)(=O)Nc2ncns2)cc1C#N` [Example 86, 3-cyano-4-[3-fluoro-2-(1-methyl-1H-pyrazol-5-yl)phenoxy]-N-1,2,4-thiadiazol-5-ylbenzenesulfonamide], the IC50 is reported as 1880 nM.
Work on `O=S(=O)(Nc1ncns1)c1ccc(Oc2ccccc2-c2ccccc2)c(Cl)c1` [Example 150, 4-(biphenyl-2-yloxy)-3-chloro-N-1,2,4-thiadiazol-5-ylbenzenesulfonamide] yielded an IC50 of 190 nM.
`N#Cc1cc(Oc2ccccc2-c2ccccc2)ccc1S(=O)(=O)Nc1ncns1` [Example 268, 4-(biphenyl-2-yloxy)-2-cyano-N-1,2,4-thiadiazol-5-ylbenzenesulfonamide] was tested, and the IC50 was 3060 nM.
With `O=S(=O)(Nc1ncns1)c1cc(F)c(Oc2ccccc2-c2ccccc2)c(F)c1` [Example 264, 4-(biphenyl-2-yloxy)-3,5-difluoro-N-1,2,4-thiadiazol-5-ylbenzenesulfonamide] the IC50 was 2380 nM.
In the case of `Cc1cc(-c2ccccc2Oc2ccc(S(=O)(=O)Nc3nccs3)cc2F)sn1` [Example 128, 3-fluoro-4-[2-(3-methylisothiazol-5-yl)phenoxy]-N-1,3-thiazol-2-ylbenzenesulfonamide], the IC50 is reported as 3110 nM.
In the case of `O=S(=O)(Nc1cscn1)c1ccc(Oc2ccccc2-c2ccccc2)c(F)c1` [Example 271, 4-(biphenyl-2-yloxy)-3-fluoro-N-thiazol-4-yl-benzenesulfonamide], the IC50 is reported as 1150 nM.

Same assay, conditions: estimated IC50; hSCN9A HEK cells, PatchXpress platform; Examples 283-814
Work on `Cc1coc(-c2cc(Cl)ccc2Oc2ccc(S(=O)(=O)Nc3nccs3)cc2C#N)n1` [Example 318, 4-[4-chloro-2-(4-methyl-1,3-oxazol-2-yl)phenoxy]-3-cyano-N-1,3-thiazol-2-ylbenzenesulfonamide] yielded an IC50 of 1300 nM.
`O=S(=O)(Nc1ncns1)c1ccc(Oc2ccc(Cl)cc2-c2cn[nH]c2)c(F)c1` [Example 737, 4-[4-chloro-2-(1H-pyrazol-4-yl)phenoxy]-3-fluoro-N-1,2,4-thiadiazol-5-ylbenzenesulfonamide] gave an IC50 of 17 nM.
`N#Cc1cc(S(=O)(=O)Nc2nccs2)ccc1Oc1cccc(-n2nc(C(F)F)cc2CO)c1` [Example 390, 3-cyano-4-{3-[3-(difluoromethyl)-5-(hydroxymethyl)-1H-pyrazol-1-yl]phenoxy}-N-1,3-thiazol-2-ylbenzenesulfonamide] showed an IC50 of 300 nM.
`CCn1nc(C(F)(F)F)c(Cl)c1-c1ccc(Oc2ccc(S(=O)(=O)Nc3nccs3)cc2C#N)cc1` [Example 695, 4-{4-[4-chloro-1-ethyl-3-(trifluoromethyl)-1H-pyrazol-5-yl]phenoxy}-3-cyano-N-1,3-thiazol-2-ylbenzenesulfonamide] showed an IC50 of 340 nM.
`Cn1nccc1-c1cc(C(F)(F)F)ncc1Oc1ccc(S(=O)(=O)Nc2cscn2)cc1C#N` [Example 601, 3-cyano-4-{[4-(1-methyl-1H-pyrazol-5-yl)-6-(trifluoromethyl)pyridin-3-yl]oxy}-N-1,3-thiazol-4-ylbenzenesulfonamide] showed an IC50 of 940 nM.
Work on `N#Cc1cc(S(=O)(=O)Nc2nccs2)ccc1Oc1ccc(Br)cc1CN1CCCC1` [Example 355, 4-[4-bromo-2-(pyrrolidin-1-ylmethyl)phenoxy]-3-cyano-N-1,3-thiazol-2-ylbenzenesulfonamide] yielded an IC50 of 400 nM.
Compound `N#Cc1cc(S(=O)(=O)Nc2ncc(F)s2)ccc1Oc1ccc(CCCO)cc1-c1cn[nH]c1` [Example 714, 3-cyano-N-(5-fluoro-1,3-thiazol-2-yl)-4-[4-(3-hydroxypropyl)-2-(1H-pyrazol-4-yl)phenoxy]benzenesulfonamide] has an IC50 of 190 nM.
`O=S(=O)(Nc1cscn1)c1cc(Cl)c(Oc2ccc(F)cc2-c2ccnn2CCO)cc1F` [Example 517, 5-chloro-2-fluoro-4-{4-fluoro-2-[1-(2-hydroxyethyl)-1H-pyrazol-5-yl]phenoxy}-N-1,3-thiazol-4-ylbenzenesulfonamide] was tested, and the IC50 was 2200 nM.
In the case of `N#Cc1cc(S(=O)(=O)Nc2nccs2)ccc1Oc1ccc(Oc2ccccc2)nc1` [Example 644, 3-cyano-4-[(6-phenoxypyridin-3-yl)oxy]-N-1,3-thiazol-2-ylbenzenesulfonamide], the IC50 is reported as 2600 nM.
In the case of `CC(C)c1cc(-n2ccc(C(F)(F)F)n2)ccc1Oc1ccc(S(=O)(=O)Nc2nccs2)cc1C#N` [Example 352, 3-cyano-4-{2-isopropyl-4-[3-(trifluoromethyl)-1H-pyrazol-1-yl]phenoxy}-N-1,3-thiazol-2-ylbenzenesulfonamide], the IC50 is reported as 190 nM.
`Nc1cccc(-c2cc(F)ccc2Oc2cc(F)c(S(=O)(=O)Nc3ncns3)cc2F)n1` [Example 407, 4-[2-(6-aminopyridin-2-yl)-4-fluorophenoxy]-2,5-difluoro-N-1,2,4-thiadiazol-5-ylbenzenesulfonamide] was tested, and the IC50 was 190 nM.
`N#Cc1cc(S(=O)(=O)Nc2ncns2)ccc1Oc1ccc(Cl)cc1-c1ccnn1C(F)F` [Example 510, 4-{4-chloro-2-[1-(difluoromethyl)-1H-pyrazol-5-yl]phenoxy}-3-cyano-N-1,2,4-thiadiazol-5-ylbenzenesulfonamide] gave an IC50 of 77 nM.
Compound `N#Cc1cc(S(=O)(=O)Nc2nccs2)ccc1Oc1ccc(-c2cc(C(F)(F)F)n(CCCF)n2)cc1F` [Example 480, 3-cyano-4-{2-fluoro-4-[1-(3-fluoropropyl)-5-(trifluoromethyl)-1H-pyrazol-3-yl]phenoxy}-N-1,3-thiazol-2-ylbenzenesulfonamide] has an IC50 of over 1000 nM.
In the case of `Cc1cc(C(F)(F)F)nn1-c1ccc(Oc2ccc(S(=O)(=O)Nc3nccs3)cc2C#N)c(C(C)C)c1` [Example 356, 3-cyano-4-{2-isopropyl-4-[5-methyl-3-(trifluoromethyl)-1H-pyrazol-1-yl]phenoxy}-N-1,3-thiazol-2-ylbenzenesulfonamide], the IC50 is reported as 120 nM.
Compound `Cn1ncnc1-c1cc(Cl)ccc1Oc1ccc(S(=O)(=O)Nc2nccs2)cc1F` [Example 406, 4-[4-chloro-2-(1-methyl-1H-1,2,4-triazol-5-yl)phenoxy]-3-fluoro-N-1,3-thiazol-2-ylbenzenesulfonamide] has an IC50 of 3000 nM.
Work on `Nc1n[nH]cc1-c1cc(Cl)ccc1Oc1cc(F)c(S(=O)(=O)Nc2ncns2)cc1F` [Example 742, 4-[2-(3-amino-1H-pyrazol-4-yl)-4-chlorophenoxy]-2,5-difluoro-N-1,2,4-thiadiazol-5-ylbenzenesulfonamide] yielded an IC50 of 3.6 nM.
`O=S(=O)(Nc1ncns1)c1cc(F)c(Oc2ccc(F)cc2-c2cn[nH]c2)cc1F` [Example 756, 2,5-difluoro-4-[4-fluoro-2-(1H-pyrazol-4-yl)phenoxy]-N-1,2,4-thiadiazol-5-ylbenzenesulfonamide] was tested, and the IC50 was 11 nM.

Same assay, conditions: estimated IC50; hSCN9A HEK cells, PatchXpress platform; Examples 815-1040
`Cc1cc(NS(=O)(=O)c2ccc(Oc3ccc(Cl)cc3-c3ccnn3C)c(C#N)c2)no1` [Example 883, 4-[4-chloro-2-(1-methyl-1H-pyrazol-5-yl)phenoxy]-3-cyano-N-(5-methylisoxazol-3-yl)benzenesulfonamide] gave an IC50 of 14000 nM.
Compound `Cc1cc(S(=O)(=O)Nc2nncs2)c(F)cc1Oc1ccc(Cl)cc1-c1ccnnc1` [Example 943, 4-(4-chloro-2-pyridazin-4-ylphenoxy)-2-fluoro-5-methyl-N-1,3,4-thiadiazol-2-ylbenzenesulfonamide] has an IC50 of 77 nM.
Compound `O=S(=O)(Nc1ncns1)c1cc(F)c(Oc2cc(Cl)c(F)cc2-c2ccnnc2)cc1F` [Example 937, 4-(5-chloro-4-fluoro-2-pyridazin-4-ylphenoxy)-2,5-difluoro-N-1,2,4-thiadiazol-5-ylbenzenesulfonamide] has an IC50 of 19 nM.
Compound `N#Cc1cc(S(=O)(=O)Nc2ncns2)ccc1Oc1ccc(Cl)cc1-c1cc(N2CCNCC2)ncn1` [Example 875, 4-[4-chloro-2-(6-piperazin-1-ylpyrimidin-4-yl)phenoxy]-3-cyano-N-1,2,4-thiadiazol-5-ylbenzenesulfonamide] has an IC50 of 50 nM.
Work on `N#Cc1cc(S(=O)(=O)Nc2ncns2)ccc1Oc1ccc(Cl)cc1-c1cccc(C(=O)N2CCC2)c1` [Example 854, 4-{[3′-(azetidin-1-ylcarbonyl)-5-chlorobiphenyl-2-yl]oxy}-3-cyano-N-1,2,4-thiadiazol-5-ylbenzenesulfonamide] yielded an IC50 of 6.4 nM.
For `N#Cc1cc(S(=O)(=O)Nc2ncns2)ccc1Oc1ccc(Cl)cc1-c1ccc(C(=O)O)cc1` [Example 999, 5′-chloro-2′-{2-cyano-4-[(1,2,4-thiadiazol-5-ylamino)sulfonyl]phenoxy}biphenyl-4-carboxylic acid], the IC50 was 3300 nM.
`Cc1n[nH]cc1-c1ccccc1Oc1ccc(S(=O)(=O)Nc2nccs2)cc1C(N)=O` [Example 983, 2-[2-(3-methyl-1H-pyrazol-4-yl)phenoxy]-5-[(1,3-thiazol-2-ylamino)sulfonyl]benzamide] gave an IC50 of 2700 nM.
For `O=S(=O)(Nc1ncns1)c1cc(F)c(Oc2ccc(OC(F)(F)F)cc2-c2ccnnc2)cc1F` [Example 897, 2,5-difluoro-4-[2-pyridazin-4-yl-4-(trifluoromethoxy)phenoxy]-N-1,2,4-thiadiazol-5-ylbenzenesulfonamide], the IC50 was 5.8 nM.
`Cc1nonc1NS(=O)(=O)c1ccc(Oc2ccc(Cl)cc2-c2ccnn2C)c(C#N)c1` [Example 907, 4-[4-chloro-2-(1-methyl-1H-pyrazol-5-yl)phenoxy]-3-cyano-N-(4-methyl-1,2,5-oxadiazol-3-yl)benzenesulfonamide] gave an IC50 of over 10000 nM.
Work on `O=S(=O)(Nc1ncns1)c1ccc(Oc2ccc(Cl)cc2-c2ccnnc2)c(Cl)c1` [Example 898, 3-chloro-4-(4-chloro-2-pyridazin-4-ylphenoxy)-N-1,2,4-thiadiazol-5-ylbenzenesulfonamide] yielded an IC50 of 5.1 nM.

Reference: US8541588B2, “Sulfonamide derivatives” (Pfizer Limited, priority 2009, dated 2013)
